The source of these data is patent publication US20110034472A1, “Novel Compounds for Treatment of Cancer and Disorders Associated With Angiogenesis Function” (UNIVERSITY OF SOUTHERN CALIFORNIA, priority 2004, published 2011).

For assay [1], the system named is DU145 cells. Briefly: Annexin V/propidium iodide apoptosis assay, DU145. Conditions: 72 hours exposure, IC80. In kind it is cell-based, human. The protocol: FIG. 19 illustrates apoptosis analysis of DU145 cells treated with SC21 or CPT (IC80). Cells were treated with SC21 or CPT for 24, 48, and 72 h, harvested, stained with annexin V/propidium iodide and analyzed by flow cytometry. Untreated control cells (24 and 48 h) were also included in the analysis. Annexin VFITC signals are recorded in FL1-H or […] and propidium iodide in FL2-H or […]. Cells in the bottom left quadrant (annexin V-negative, propidium iodide-negative) are viable, whereas cells in the right quadrant (annexin V-positive, propidium iodide-negative) are in the early stages of apoptosis, and the cells in the top right quadrant (annexin V-positive, propidium iodide-positive) are in later stages of apoptosis and necrosis.
To quantify drug-induced apoptosis, annexin V/propidium iodide staining was done followed by flow cytometry. […] The resulting fluorescence (FLH-1 channel for green fluorescence and FLH-2 channel for red fluorescence) was measured by flow cytometry using a FACScan flow cytometer (Becton Dickinson).
SC21 and CPT-induced apoptosis was measured by flow cytometry (FIG. 18). SC21 at an IC80 dose for 72 hours induced 12% to 15% apoptosis as measured by calculating sub-G0/G1 population. […] This event precedes nuclear breakdown, DNA fragmentation, the appearance of most apoptosis-associated molecules, and is readily measured by annexin V binding assay. […]

The test system of assay [2] is UACC-62 melanoma cells. Briefly: Sensitivity of various cancer cells to SC144, UACC-62. In kind it is cell-based. As to conditions: Homo sapiens. An excerpt:
The studies were expanded to other cell lines. […] Subnanomolar to low nanomolar potency was also observed in HCT-116 and HT29 colon cancer cell lines (Table 2).

As to `O=C(NNC(=O)c1ccccc1O)C1=CC2C=CC=CC2C=C1O` (centres unmarked) [SC21], the “early plus late apoptotic cells” value in assay [1] was found to be 72%.

A word on the CC50: it is the concentration at which the toxic effect on the cells reaches its halfway point. A higher CC50 goes with better tolerance by the cells. `O=C(NNc1nc2cc(F)ccc2n2cccc12)c1cnccn1` [SC144, Pyrazine-2-carboxylic acid N′-(7-fluoro-pyrrolo[1,2-a]quinoxalin-4-yl)-hydrazide] yielded a CC50 in assay [2] of 800 nM.
